Measurements taken from PubChem BioAssay (NCI).
Several values for one entry are separate records, joined by “and”; a condition that tells them apart may be missing. Equal values may be shown once.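 All cell lines were grown in 96-well plates and treated with compound for 48 hours. GI50 is the concentration that inhibits growth by half. TGI: total growth inhibition.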

Tests used:
Assay in all cases: NCI-60 cell line screen, 48 h
A549 NSCLC = system: A549 NSCLC
EKVX NSCLC = system: EKVX NSCLC
HT29 colon = system: HT29 colon
NCI-H23 lung = system: NCI-H23 lung
SF-295 CNS = system: SF-295 CNS
SK-MEL-2 melanoma = system: SK-MEL-2 melanoma
T-47D breast = system: T-47D breast
TK-10 renal = system: TK-10 renal
UACC-257 melanoma = system: UACC-257 melanoma
UACC-62 melanoma = system: UACC-62 melanoma

Compound	GI50 (A549 NSCLC)	TGI (A549 NSCLC)	GI50 (EKVX NSCLC)	TGI (EKVX NSCLC)	GI50 (HT29 colon)	TGI (HT29 colon)	GI50 (NCI-H23 lung)	TGI (NCI-H23 lung)	GI50 (SF-295 CNS)	TGI (SF-295 CNS)	GI50 (SK-MEL-2 melanoma)	TGI (SK-MEL-2 melanoma)	GI50 (T-47D breast)	TGI (T-47D breast)	GI50 (TK-10 renal)	TGI (TK-10 renal)	GI50 (UACC-257 melanoma)	TGI (UACC-257 melanoma)	GI50 (UACC-62 melanoma) [µM]	TGI (UACC-62 melanoma)
c1ccc2nc(Cn3c[n+](Cc4ccc5ccccc5n4)c4ccccc43)ccc2c1	11.6 µM	25.9 µM	5.7 µM	23.7 µM	1.48 µM	9.87 µM	1.47 µM	10.3 µM	2.69 µM	11.9 µM	2.61 µM	6.87 µM	0.785 µM	9.65 µM	3.49 µM	13.3 µM	2.02 µM	5.33 µM	1.34	3.51 µM
CN(C)c1ccc2nc3ccc(=[N+](C)C)cc-3oc2c1	2.91 µM	84.1 µM	0.636 µM	6.76 µM	3.38 µM	29.3 µM	0.788 µM	5.6 µM	3.74 µM	22.5 µM	2.38 µM	11.1 µM	0.582 µM	6.59 µM	17.2 µM	57.2 µM	0.697 µM	3.34 µM	2.32	19.2 µM
CC1=CC(=O)c2c(O)cccc2C1=O	–	34.6 µM	–	3.08 µM	–	3.46 µM	–	3.47 µM	–	23.9 µM	–	3.72 µM	–	2.22 µM	–	3.14 µM	–	3.27 µM	–	3.4 µM
C=C(C)[C@@H]1CC=C(CO)CC1	> 10 µM	> 10 µM and 755 µM	> 10 µM	> 10 µM and 1250 µM	> 10 µM	> 10 µM and 702 µM	> 10 µM	> 10 µM and 1120 µM	> 10 µM	> 10 µM and 941 µM	> 10 µM	> 10 µM and 817 µM	–	> 10 µM	> 10 µM	> 10 µM and 998 µM	> 10 µM	> 10 µM and 1150 µM	> 10	> 10 µM and 964 µM
N=C(N)c1nn(C2OC(CO)C(O)C2O)c2nc[nH]c(=O)c12 (centres undefined)	0.659 µM	13.4 µM	0.493 µM	3.95 µM	2.11 µM	11.7 µM	0.727 µM	3.63 µM	0.643 µM	3.26 µM	0.19 µM	0.663 µM	0.255 µM	2.71 µM	0.363 µM	2.17 µM	0.292 µM	1.29 µM	0.431	1.63 µM
O=C(Nc1cccc(Cl)c1)Nc1ncc(CCNc2ncnc3ccsc23)s1	0.748 µM and 0.493 µM	16.1 µM and > 10 µM	3.13 µM and 3.14 µM	19 µM and > 10 µM	3.33 µM and 3.03 µM	23.1 µM and > 10 µM	2.08 µM and 2.49 µM	20.1 µM and > 10 µM	0.215 µM and 0.593 µM	16.9 µM and > 10 µM	2.88 µM and 1.76 µM	10.8 µM and 6.26 µM	2.26 µM and 1.27 µM	7.5 µM and 5.63 µM	3.46 µM and 4.18 µM	16.1 µM and > 10 µM	2.12 µM and 1.22 µM	11.4 µM and 9.27 µM	1.1	11.7 µM
